One may read the IC50 as the concentration that inhibits the measured activity by half.

A short description of this assay: Inhibition of rat intestinal alpha-glucosidase using p-nitrophenyl- alpha-D-glucopyranoside as substrate preincubated for 5 min before addition of substrate measured after 10 min.
The compound `O=[N+]([O-])c1ccc(/N=C/c2ccccc2O)cc1` had a half-inhibitory concentration (IC50) of 22.7 µM. Take `O=Cc1cc(Br)ccc1O` [US8614253,3-44]: the half-maximal inhibitory concentration (IC50) is 8.8 µM. The compound `COc1ccc(/N=C/c2cc(Br)ccc2O)cc1` yielded a half-maximal inhibitory concentration (IC50) of 74.1 µM.

Source of the values: BindingDB's records for doi:10.1007/s00044-010-9377-3 (n/a, 2011).
